Data reported in US5726159A, “Antithrombotic agents” (Eli Lilly and Company, priority 1995, dated 1998).
Structures can show the parent of a compound that is named as a salt.

Tests used:
Format in all cases: biochemical
Human plasma [1] = assay: Human plasma anticoagulation, thrombin time (TT); conditions: concentration required to double the clotting time
Description: (§1) Dog plasma and rat plasma is obtained from conscious mixed-breed hounds (either sex, Hazelton-LRE, Kalamazoo, Mich., U.S.A.) or from anesthetized male Sprague-Dawley rats (Harlan Sprague-Dawley, Inc., Indianapolis, Ind., U.S.A.) by venipuncture into 3.8 percent citrate. Fibrinogen is prepared from in-date ACD human blood as the fraction I-2 according to previous procedures and specifications. […] Human fibrinogen is also purchased as 98 percent pure/plasmin free from American Diagnostica, Greenwich, Conn. Coagulation reagents ACTIN, Thromboplastin, and Human plasma are from Baxter Healthcare Corp., Dade Division, Miami, Fla. Bovine thrombin from Parke-Davis ([…], Mich.) is used for coagulation assays in plasma.
(§2) Coagulation assay procedures are as previously described. […] A CoAScreener coagulation instrument (American LABor, Inc.) is used for all coagulation assay measurements. The prothrombin time (PT) is measured by adding 0.05 mL saline and 0.05 mL Thromboplastin-C reagent to 0.05 mL test plasma. The activated partial thromboplastin time (APTT) is measured by incubation of 0.05 mL test plasma with 0.05 mL Actin reagent for 120 seconds followed by 0.05 mL CaCl2 (0.02M). The thrombin time (TT) is measured by adding 0.05 mL saline and 0.05 mL thrombin (10 NIH units/mL) to 0.05 mL test plasma. The compounds of Formula I are added to human or animal plasma over a wide range of concentrations to determine prolongation effects on the APTT, PT, and TT assays. Linear extrapolations are performed to estimate the concentrations required to double the clotting time for each assay.

t-PA = biological target: T1, t-PA (Homo sapiens, UniProt P00750); assay: Kass for t-PA, chromogenic substrate
T1 construct: purchased American Diagnostica, Greenwich, Conn
Description: (§3) By substantially following the procedures described above for human thrombin, and using other human blood coagulation system serine proteases and proteases of the fibrinolytic system with the appropriate chromogenic substrates, identified below, selectivity of the compounds of the present invention with respect to the coagulation factor serine proteases and with respect to the fibrinolytic system serine proteases are evaluated as well as their substantial lack of interference with serine proteases of the fibrinolytic system. […] This would be important to the therapeutic use of such agents as an adjunct to streptokinase, t-PA or urokinase thrombolytic therapy and to the use of such agents as an endogenous fibrinolysis-sparing (with respect to t-PA and urokinase) antithrombotic agent. In addition to the lack of interference with the amidase activity of the fibrinolytic proteases, such fibrinolytic system sparing can be studied by the use of human plasma clots and their lysis by the respective fibrinolytic plasminogen activators.

Human plasma [2] = assay: Human plasma anticoagulation, prothrombin time (PT); conditions: concentration required to double the clotting time
Description: as §1, §2

Human plasma [3] = assay: Human plasma anticoagulation, activated partial thromboplastin time (APTT); conditions: concentration required to double the clotting time
Description: as §1, §2

Bovine trypsin = biological target: T2, Bovine trypsin (Bos taurus, UniProt P00760); assay: Kass for trypsin, chromogenic substrate
T2 construct: Bovine trypsin is purchased from Worthington Biochemicals, Freehold, N.J; purchased Worthington Biochemicals, Freehold, N.J
T2 sequence (P00760 24-246): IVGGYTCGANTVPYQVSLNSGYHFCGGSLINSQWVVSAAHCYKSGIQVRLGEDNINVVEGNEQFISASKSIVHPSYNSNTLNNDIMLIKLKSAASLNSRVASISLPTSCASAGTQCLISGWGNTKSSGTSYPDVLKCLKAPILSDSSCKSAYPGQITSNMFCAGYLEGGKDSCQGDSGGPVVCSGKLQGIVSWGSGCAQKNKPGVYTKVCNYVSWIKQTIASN
Description: as §3
(§4) Chromogenic substrates: N-Benzoyl-Ile-Glu-Gly-Arg-p-nitroanilide (for factor Xa); N-Cbz-D-Arg-Gly-Arg-p-nitroanilide (for factor IXa assay as the factor Xa substrate); Pyroglutamyl-Pro-Arg-p-nitroanilide (for Factor XIa and for aPC); H-D-Pro-Phe-Arg-p-nitroanilide (for factor XIIa); and Pyroglutamyl-Gly-Arg-p-nitroanilide (for urokinase); are purchased from KabiVitrnm, Stockholm, Sweden, or from Midwest Biotech, Fishers, Ind. Bovine trypsin is purchased from Worthington Biochemicals, Freehold, N.J., and human plasma kallikrein from Kabi Vitrum, Stockholm, Sweden. Chromogenic substrate H-D-Pro-Phe-Arg-p-nitroanilide for plasma kallikrein is purchased from Kabi Vitrum, Stockholm, Sweden. N-Benzoyl-Phe-Val-Arg-p-nitroanilide, the substrate for human thrombin and for trypsin, is synthesized according to procedures described above for the compounds of the present invention, using known methods of peptide coupling from commercially available reactants or purchased from Midwest Biotech, Fishers, Ind.

human thrombin = human thrombin (Homo sapiens, UniProt P00734); assay: Inhibition of thrombin amidase activity (Kass), chromogenic substrate; conditions: association constant, mean over concentrations
factor Xa = factor Xa (Homo sapiens, UniProt P00742); assay: Kass for factor Xa, chromogenic substrate
Description: as §3, §4

T1 sequence (P00750 36-562): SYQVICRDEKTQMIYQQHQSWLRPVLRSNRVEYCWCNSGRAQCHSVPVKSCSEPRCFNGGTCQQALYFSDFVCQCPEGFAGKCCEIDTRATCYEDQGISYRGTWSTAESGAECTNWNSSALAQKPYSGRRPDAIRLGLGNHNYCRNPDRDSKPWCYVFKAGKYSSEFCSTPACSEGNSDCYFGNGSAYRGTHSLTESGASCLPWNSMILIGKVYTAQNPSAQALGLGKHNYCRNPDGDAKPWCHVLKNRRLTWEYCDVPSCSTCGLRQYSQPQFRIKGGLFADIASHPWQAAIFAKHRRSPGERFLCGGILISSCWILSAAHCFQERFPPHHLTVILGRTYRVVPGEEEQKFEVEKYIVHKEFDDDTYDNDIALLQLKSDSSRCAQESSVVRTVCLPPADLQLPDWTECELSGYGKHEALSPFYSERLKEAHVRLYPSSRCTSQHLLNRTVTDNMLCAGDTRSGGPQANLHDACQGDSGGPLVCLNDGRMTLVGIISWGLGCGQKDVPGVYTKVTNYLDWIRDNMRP
Chain of factor Xa (P00742 235-488 limits assumed): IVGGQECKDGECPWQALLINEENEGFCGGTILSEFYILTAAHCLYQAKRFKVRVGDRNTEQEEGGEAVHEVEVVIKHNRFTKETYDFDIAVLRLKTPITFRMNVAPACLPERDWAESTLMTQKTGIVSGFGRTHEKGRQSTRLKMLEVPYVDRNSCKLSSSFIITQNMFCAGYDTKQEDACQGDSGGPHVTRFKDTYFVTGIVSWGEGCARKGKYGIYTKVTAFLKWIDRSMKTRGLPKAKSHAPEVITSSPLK
Chain of factor Xa (P00742 41-179 partner limits assumed): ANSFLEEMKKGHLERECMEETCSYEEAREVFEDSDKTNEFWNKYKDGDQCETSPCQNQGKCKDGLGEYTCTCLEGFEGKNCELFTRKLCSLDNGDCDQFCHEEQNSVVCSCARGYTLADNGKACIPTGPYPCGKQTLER

Row | Molecule | 2x Clotting time TT (Human plasma [1]) | Kass t-PA (t-PA) | 2x Clotting time PT (Human plasma [2]) | 2x Clotting time APTT (Human plasma [3]) | Kass Trypsin (Bovine trypsin) | Kass Human Thrombin (human thrombin) | Kass Xa (factor Xa)
1 | CCS(=O)(=O)N[C@H](Cc1ccccc1)C(=O)N1CCC[C@H]1C(=O)NCc1ccc(NC(=N)N)cc1 [Example 34, EtSO2 -D-Phe-Pro-p-NHCH2 C6 H4 NHC(NH)NH2.HCl] | 530 ng/mL | 0.01 × 10^6 (L/mole) | 5,500 ng/mL | 4,900 ng/mL | – | – | –
2 | HO2 CCH2 -D-Cha-Pro-4-NHCH2 -2-amidinothiophene.HCl [Example 65] | 1 ng/mL | – | – | 48 ng/mL | 570. × 10^6 (L/mole) | 4,500 × 10^6 (L/mole) | –
3 | N=C(N)c1ccc(CNC(=O)[C@@H]2CCCN2C(=O)[C@@H](CC2CCCCC2)NCC(=O)O)c(F)c1 [Example 71, HO2 CCH2 -D-Cha-Pro-4-NHCH2 -3-F-benzamidine.HCl] | 1 ng/mL | – | 150 ng/mL | 89 ng/mL | 240. × 10^6 (L/mole) | – | –
4 | N=C(N)c1ccc(CNC(=O)[C@@H]2CCCN2C(=O)[C@@H](CC2CCCCC2)NCCC(=O)O)cc1 [Example 52, HOOCCH2 CH2 -D-Cha-Pro-p-NHCH2 C6 H4 C(NH)NH2.HCl] | 6 ng/mL | 0.01 × 10^6 (L/mole) | 170 ng/mL | 80 ng/mL | 47. × 10^6 (L/mole) | – | –
5 | N=C(N)c1ccc(CNC(=O)[C@@H]2C[C@@H]3CCCC[C@@H]3N2C(=O)[C@@H](Cc2ccccc2)NCC(=O)O)cc1 (relative stereo) [Example 47, HOOCCH2 -D-Phe-cis-Ohi-p-NHCH2 C6 H4 C(NH)NH2.HCl] | 12. ng/mL | 0.01 × 10^6 (L/mole) | 270 ng/mL | 140 ng/mL | 82. × 10^6 (L/mole) | – | –
6 | N=C(N)NCCCCCNC(=O)[C@@H]1CCCN1C(=O)[C@H](N)Cc1ccccc1 [Example 6, D-Phe-Pro-NH(CH2)5 NHC(NH)NH2.HCl] | 390 ng/mL | < 0.001 | – | – | – | – | –
7 | HOOCCH2 -D-Phe-Pro-p-NHCH2 C6 H4 C(NH)NH2.HCl [Example 46] | 2. ng/mL | 0.01 | 77 ng/mL | 67 ng/mL | 48. | – | –
8 | N=C(N)c1ccc(CNC(=O)[C@@H]2C[C@@H]3CCCC[C@@H]3N2C(=O)[C@@H]2NCC[C@@H]3CCCC[C@@H]32)cc1 (relative stereo) [Example 42, D-1-Piq-cis-Ohi-p-NHCH2 C6 H4 C(NH)NH2.2HCl] | 20 ng/mL | 0.01 × 10^6 (L/mole) | 320 ng/mL | 270 ng/mL | 43. × 10^6 (L/mole) | 38. × 10^6 (L/mole) | –
9 | CCS(=O)(=O)N[C@H](CC1CCCCC1)C(=O)N1CCC[C@H]1C(=O)NCc1ccc(C(=N)N)cc1 [Example 80, EtSO2 -D-Cha-Pro-4-NHCH2 C6 H4 C(NH)NH2.HCl] | 4 ng/mL | – | 130 ng/mL | 40 ng/mL | 90. × 10^6 (L/mole) | – | –
10 | N=C(N)c1ccc(CNC(=O)[C@@H]2CCCN2C(=O)[C@H](N)CC2CCCCC2)cc1 [Example 51, D-Cha-Pro-p-NHCH2 C6 H4 C(NH)NH2.2HCl] | 2 ng/mL | 0.01 × 10^6 (L/mole) | 110 ng/mL | 48 ng/mL | 27. × 10^6 (L/mole) | – | –
11 | NMI-D-Phe-Pro-Agm.HCl [Example 4] | 230 ng/mL | – | – | – | – | 13. × 10^6 (L/mole) | –
12 | N=C(N)c1ccc(CCCNC(=O)[C@@H]2CCCN2C(=O)[C@@H]2NCC[C@@H]3CCCC[C@@H]32)cc1 [Example 32, 1-Piq-Pro-p-NHCH2 CH2 CH2 -C6 H4 C(=NH)NH2.HCl] | 3,100 ng/mL | 0.01 × 10^6 (L/mole) | 47,800 ng/mL | 28,500 ng/mL | – | – | –
13 | CCS(=O)(=O)N[C@H](Cc1ccccc1)C(=O)N1[C@H](C(=O)NCc2ccc(C(=N)N)cc2)C[C@@H]2CCCC[C@@H]21 (relative stereo) [Example 45, EtSO2 -Phe-cis-Ohi-p-NHCH2 C6 H4 C(NH)NH2.HCl] | 8 ng/mL | – | 330 ng/mL | 200 ng/mL | 110. × 10^6 (L/mole) | – | –
14 | N=C(N)c1ccc(CNC(=O)[C@@H]2CCCN2C(=O)[C@@H](CC2CCCCC2)NCC(=O)O)cc1 [Example 48, HOOCCH2 -D-Cha-Pro-p-NHCH2 C6 H4 C(NH)NH2.HCl] | 2. ng/mL | – | 59 ng/mL | 33 ng/mL | 250. × 10^6 (L/mole) | – | –
15 | CCS(=O)(=O)N[C@H](Cc1ccccc1)C(=O)N1CCC[C@H]1C(=O)NCCc1cccc(NC(=N)N)c1 [Example 37, EtSO2 -D-Phe-Pro-m-NHCH2 CH2 C6 H4 NHC(NH)NH2.HCl] | > 9,000 ng/mL | – | > 9,000 ng/mL | > 9,000 ng/mL | – | – | < 0.009 × 10^6 (L/mole)
16 | N=C(N)c1ccc(CNC(=O)[C@@H]2C[C@@H]3CCCC[C@@H]3N2C(=O)[C@@H](CC2CCCCC2)NCC(=O)O)cc1 (relative stereo) [Example 49, HOOCCH2 -D-Cha-cis-Ohi-p-NHCH2 C6 H4 C(NH)NH2.HCl] | 5 ng/mL | – | 130 ng/mL | 130 ng/mL | 940. × 10^6 (L/mole) | – | –
17 | N=C(N)c1cccc(CNC(=O)[C@@H]2CCCN2C(=O)[C@@H]2NCC[C@@H]3CCCC[C@@H]32)c1 [Example 25, D-1-Piq-Pro-m-NHCH2 -C6 H4 C(=NH)NH2.HCl] | 1,430 ng/mL | 0.01 × 10^6 (L/mole) | 40,400 ng/mL | 34,600 ng/mL | – | – | –
18 | CCS(=O)(=O)N[C@H](Cc1ccccc1)C(=O)N1CCC[C@H]1C(=O)NCCc1ccc(C(=N)N)cc1 [Example 26, EtSO2 -D-Phe-Pro-p-NHCH2 CH2 -C6 H4 C(=NH)NH2.HCl] | 37 ng/mL | 0.01 × 10^6 (L/mole) | 750 ng/mL | 870 ng/mL | – | 13. × 10^6 (L/mole) | –
19 | CCS(=O)(=O)N[C@H](Cc1ccccc1)C(=O)N1CCC[C@H]1C(=O)NCCCc1cccc(C(=N)N)c1 [Example 31, EtSO2 -D-Phe-Pro-m-NHCH2 CH2 CH2 -C6 H4 C(=NH)NH2.HCl] | 10,800 ng/mL | – | 30,000 ng/mL | 34,500 ng/mL | – | – | –
20 | N=C(N)c1ccc(CNC(=O)[C@@H]2C[C@@H]3CCCC[C@@H]3N2C(=O)[C@H]2C[C@H]3CCCC[C@H]3CN2)cc1 (relative stereo) [Example 43, D-3-Piq-cis-Ohi-p-NHCH2 C6 H4 C(NH)NH2.2HCl] | 280 ng/mL | 0.01 × 10^6 (L/mole) | 930 ng/mL | 1,100 ng/mL | 100. × 10^6 (L/mole) | – | –
